Data on 13 molecules can be found in patent US8206704B2, “Use of GCC ligands” (priority 2003, dated 2012).

A word on the Ki: it is the dissociation constant of the complex between target and ligand, obtained from inhibition or displacement.

In experiment [1] the test system is T84 cells. The experiment in a line: DNA synthesis ([methyl-3H]thymidine incorporation), tumor cell proliferation. Type of experiment: cell-based, human. To be noted: for Effect of agent on inhibition of proliferation induced by ST: with ST, 1 μM KT5823, 50 μM RP8pCPT-cGMP, 0.5 μM KT5720, 50 μM RP-cAMPs, 10 μM milrinone, 200 μM L-DLT, 20 μM BAPTA, 50 μM DTR, 1 μM PHE, 100 nM CTX. As to the method:
T84 (passages 50-70) and SW480 (passage 100-120) human colon carcinoma cells, obtained from the American Type Culture Collection, were maintained at 37° C. (5% CO2) in DMEM/F12 containing 2.5 mM L-glutamine, 100 units/ml penicillin, 100 μg/ml streptomycin, and 10% (vol/vol) FBS.
Exponentially growing cancer cells (˜60% confluent in 96-well plates) were synchronized by serum starvation in Eagle's minimal essential medium (EMEM) for 48 h, followed by proliferative induction with 10 mM L-glutamine (in EMEM) for 24 h. ST and other agents were added to cells 15 min before 0.2 μCi per well (1 Ci=37 GBq) of [methyl-3H]thymidine, which was added for 3 h, followed by quantification of [3H]thymidine incorporation into DNA (15).
(Dividing cells build labelled thymidine or BrdU into new DNA.)

Experiment [2] has as its target cAMP-dependent protein kinase I and II. To be noted: refs. 50 and 51; cited from earlier work.
Experiment [3] deals with Caco 2 human colon carcinoma cells. The experiment in a line: Inhibition of proliferation of cancer cells. It counts as cell-based. To be noted: after exposure.
The subject of experiment [4] is T84 human colon carcinoma cells. The experiment in a line: Inhibition of proliferation of cancer cells. It counts as cell-based. Particulars: after exposure.
Experiment [5] relates to human colorectal cancer cells. The experiment in a line: Actin cytoskeleton organization (confocal microscopy, cell spreading). Type of experiment: cell-based. To be noted: ST 1 micromolar, confocal microscopy. The source says: ST prevented human colorectal cancer cells from organizing their actin cytoskeleton. […] The latter is a functional readout of the ability of cells to organize actin. Human colorectal cancer cells treated with ST cannot spread their bodies out in vitro. An inability to organize their actin cytoskeletons will prevent these cells from being able to migrate through tissues to metastasize.

The test system of experiment [6] is matrix metalloproteinase 9 release from human colorectal cancer cells. The experiment is described as follows: Release of matrix metalloproteinase 9 (MMP 9 activity, western blot). It counts as cell-based. Particulars: ST 1 micromolar. The source says: Preventing the secretion of this digestive enzyme will inhibit the ability of these tumor cells to invade the wall of the intestine. […] ST did this at a concentration of 1 micromolar.

In experiment [7] the test system is human T84 colon cancer cells. The experiment is described as follows: Perforated whole-cell patch-clamp current measurements. Type of experiment: cell-based. Particulars: Ca-free solution, n=5.
Experiment [8] deals with T84 cells. The experiment is described as follows: 45Ca2+ transport (calcium influx). Type of experiment: cell-based, human. Particulars: ST 1 μM, 20 min; 8-br-cGMP 5 mM, 40 min. On the procedure: Exponentially growing T84 cells (40-80% confluent in 24-well plates) were incubated in media (S-MEM, Life Technologies, Rockville, Md.) containing low (300 μM) CaCl2 to maximize the signal-to-noise ratio for L-cis-diltiazem (L-DLT)-sensitive 45Ca2+ transport determinations. Cells were treated with ST, 8-br-cGMP, and/or L-DLT for the indicated times, followed by the addition of 1 μCi per well 45Ca2+ for the last 15 min. Incubations were terminated by washing four times in cold PBS buffer (145 mM NaCl/5 mM KCl/1 mM MgCl2/10 mM glucose/5 mM Hepes, pH 7.4) containing 0.1 mM EGTA, cells were solubilized with cold NaOH (0.1 M), and radioactivity was quantified in 100-μl aliquots.

Experiment [9] concerns human T84 colon cancer cells. The experiment in a line: Perforated whole-cell patch-clamp current measurements. Type of experiment: cell-based. Particulars: for Induction of L-DLT-sensitive membrane current: 500 nM ST, 2.5 mM 8-br-cGMP. On the procedure: The perforated mode of the whole-cell patch-clamp recording was applied to human T84 colon cancer cells. Membrane potential was controlled through the electrical access obtained by membrane perforation induced by amphotericin B (9, 10). The pipette solution supplemented by amphotericin B ([…]) contained: 140 mM KCl, 1 mM MgCl2, 5 mM EGTA, and 20 mM Hepes-KOH (pH 7.3). The bath solution contained (in mM): 136.5 mM NaCl, 5.4 mM KCl, 1.8 mM CaCl2, 0.5 mM MgCl2, 5.5 mM glucose, and 5 mM Hepes-NaOH (pH 7.4). Voltage-clamp recordings were performed with an Axopatch 1-C patch-clamp amplifier (Axon Instruments, Foster City, Calif.) at 31±1° C. using an HCC-100 temperature controller (Dagan Instruments, Minneapolis; ref. 19).
A general note: In patch-clamp work, channel activity is measured electrically.

The next experiment deals with PKG-I and -II. Particulars: cited from earlier work.

“Also recorded” adds a separate entry of the source. No end group written: not given here.

In the case of `Nc1ncnc2c1ncn2[C@@H]1O[C@@H]2CO[P@@](O)(=S)O[C@H]2[C@H]1O` [RP-cAMPs], the “Effect of agent on inhibition of proliferation induced by ST” value (shortened to “Effect of agent on inhibition … by ST”) in the experiment with T84 cells [1] was “did not alter”. In experiment [2], the Ki was 10 µM.

In the case of `CCCCCCOC(=O)[C@]1(O)C[C@@H]2O[C@@]1(C)n1c3ccccc3c3c4c(c5c6ccccc6n2c5c31)C(=O)NC4` [KT5720], the “Effect of agent on inhibition … by ST” value in the experiment on T84 cells [1] is recorded as “did not alter”. Moreover, the Ki in experiment [2] is 0.056 µM.

On to `C[C@H](CCC(=O)O)C[C@H](C)C[C@H](C)C(=O)/C=C(\O)[C@H](C)C[C@H](C)C/C=C/[C@@H](C)[C@@H](O)[C@@H](C)[C@@H](O)C[C@@H]1CC[C@@](C)([C@H]2CC[C@@](C)([C@@H](C)O)O2)O1` [Ionomycin], for which, in the experiment with T84 cells [1] (ionomycin 1 μM, ST 1 μM), the “Effect on cell proliferation of agent on its own compared with ST” value is listed as “mimicked”.

With “uroguanylin: homologous ST receptor binding peptide produced locally in the intestine (NDDCELCVNVACTGCL; ends and bridges not checked; cysteine pairing not given here; UniProt Q16661 97-112, looked up)”, the “Inhibition of proliferation of cancer cells” value in experiment [3] and in experiment [4] was “inhibit the proliferation” each time.

Regarding `Nc1nc2c(ncn2[C@@H]2O[C@@H]3COP(=O)(O)O[C@H]3[C@H]2O)c(=O)[nH]1` [cyclic GMP], in experiment [5], the “Organization of actin cytoskeleton” value is recorded as “prevented this organization”. Moreover, the “Release of matrix metalloproteinase 9” value in experiment [6] is reported as “precisely mimicked”.

For the molecule `Cc1[nH]c(=O)c(C#N)cc1-c1ccncc1` [milrinone], the “Effect of agent on inhibition … by ST” value in the experiment on T84 cells [1] is reported as “did not alter”.

For the molecule `Nc1nc2c(nc(Br)n2[C@@H]2O[C@@H]3COP(=O)(O)O[C@H]3[C@H]2O)c(=O)[nH]1` [8-br-cGMP], the “Inhibition of cell proliferation / DNA synthesis by 8-br-cGMP” value in the experiment on T84 cells [1] (8-br-cGMP 5 mM) is on record as “inhibited tumor cell DNA synthesis; also recorded: inhibition of cell proliferation”. The “Induced current after removal of [Ca2+]ext” value in experiment [7] is on record as 0.07±0.04 nA. The “Influx of 45Ca2+ into colon cancer cells” value with T84 cells [8] is “induced influx”. In addition, in [9], the “Induction of Ca2+-dependent K+ current (KCa), charybdotoxin-sensitive” value is listed as “induced”; the “Reversal potential derived from the induced current-voltage relationship” value is recorded as about −70 mV; the “Induction of L-DLT-sensitive membrane current” value is “induced an L-DLT-sensitive current”. Moreover, the “Induction of L-DLT-sensitive membrane current” value in [9] (listed as 8-Br-cGMP) is “induces an L-DLT-sensitive current”. In addition, the “Induced current in the presence of [Ca2+]ext” value in experiment [9] (control, 1.8 mM CaCl2, n=5) was determined as 0.21±0.04 nA. Further, the “Shift of the reversal potential ΔEm” value in experiment [9] (ramp pulses, holding potential −40 mV, mean±SEM) is reported as −25.8±4.6 mV.

“charybdotoxin (QFTNVSCTTSKECWSVCQRLHNTSRGKCMNKKCRCYS)”: the “Effect of agent on inhibition … by ST” value is listed as “absence of charybdotoxin effect” in the experiment on T84 cells [1] and “did not reverse” in the experiment on T84 cells [1] (listed as CTX).

For the molecule `O=C1CN(/N=C/c2ccc(-c3ccc([N+](=O)[O-])cc3)o2)C(O)=N1` [Dantrolene], the results for the “Effect of agent on inhibition … by ST” value with T84 cells [1] and with T84 cells [1] (listed as dantrolene) were “did not reverse” and “did not affect”, respectively.

Regarding `Nc1nc2c(nc(Sc3ccc(Cl)cc3)n2C2OC3COP(O)(=S)OC3C2O)c(=O)[nH]1` (centres unmarked) [RP8pCPT-cGMP], the “Effect of agent on inhibition … by ST” value in the experiment with T84 cells [1] is reported as “did not alter”. At PKG-I and -II, the Ki was 500 nM.

For `CC(=O)OCOC(=O)CN(CC(=O)OCOC(C)=O)c1ccccc1OCCOc1ccccc1N(CC(=O)OCOC(C)=O)CC(=O)OCOC(C)=O` [BAPTA-AM], the “Effect of agent on inhibition … by ST” value in the experiment with T84 cells [1] was “reversal; also recorded: abolished”.

For the molecule `NC(=Nc1ccccc1)NC(=O)c1nc(Cl)c(N)nc1N` [phenamil], the “Effect of agent on inhibition … by ST” value in the experiment with T84 cells [1] is “did not affect; also recorded: did not reverse”.

In the case of `COC(=O)[C@@]1(OC)C[C@H]2O[C@]1(C)n1c3ccccc3c3c4c(c5c6ccccc6n2c5c31)C(=O)N(C)C4` [KT5823], the “Effect of agent on inhibition … by ST” value in the experiment with T84 cells [1] is “did not alter”. The Ki at PKG-I and -II was 234 nM.
